Usually IC50 stands for the concentration needed to halve the response being measured. Higher therefore signals lower potency.

These results are taken from US20180290977A1, “KDM4 INHIBITORS” (Albert-Ludwigs-University Freiburg, priority 2017, published 2018).

This experiment deals with T1, KDM2A (Homo sapiens, UniProt Q9Y2K7).
T1 sequence (Q9Y2K7 1-1162): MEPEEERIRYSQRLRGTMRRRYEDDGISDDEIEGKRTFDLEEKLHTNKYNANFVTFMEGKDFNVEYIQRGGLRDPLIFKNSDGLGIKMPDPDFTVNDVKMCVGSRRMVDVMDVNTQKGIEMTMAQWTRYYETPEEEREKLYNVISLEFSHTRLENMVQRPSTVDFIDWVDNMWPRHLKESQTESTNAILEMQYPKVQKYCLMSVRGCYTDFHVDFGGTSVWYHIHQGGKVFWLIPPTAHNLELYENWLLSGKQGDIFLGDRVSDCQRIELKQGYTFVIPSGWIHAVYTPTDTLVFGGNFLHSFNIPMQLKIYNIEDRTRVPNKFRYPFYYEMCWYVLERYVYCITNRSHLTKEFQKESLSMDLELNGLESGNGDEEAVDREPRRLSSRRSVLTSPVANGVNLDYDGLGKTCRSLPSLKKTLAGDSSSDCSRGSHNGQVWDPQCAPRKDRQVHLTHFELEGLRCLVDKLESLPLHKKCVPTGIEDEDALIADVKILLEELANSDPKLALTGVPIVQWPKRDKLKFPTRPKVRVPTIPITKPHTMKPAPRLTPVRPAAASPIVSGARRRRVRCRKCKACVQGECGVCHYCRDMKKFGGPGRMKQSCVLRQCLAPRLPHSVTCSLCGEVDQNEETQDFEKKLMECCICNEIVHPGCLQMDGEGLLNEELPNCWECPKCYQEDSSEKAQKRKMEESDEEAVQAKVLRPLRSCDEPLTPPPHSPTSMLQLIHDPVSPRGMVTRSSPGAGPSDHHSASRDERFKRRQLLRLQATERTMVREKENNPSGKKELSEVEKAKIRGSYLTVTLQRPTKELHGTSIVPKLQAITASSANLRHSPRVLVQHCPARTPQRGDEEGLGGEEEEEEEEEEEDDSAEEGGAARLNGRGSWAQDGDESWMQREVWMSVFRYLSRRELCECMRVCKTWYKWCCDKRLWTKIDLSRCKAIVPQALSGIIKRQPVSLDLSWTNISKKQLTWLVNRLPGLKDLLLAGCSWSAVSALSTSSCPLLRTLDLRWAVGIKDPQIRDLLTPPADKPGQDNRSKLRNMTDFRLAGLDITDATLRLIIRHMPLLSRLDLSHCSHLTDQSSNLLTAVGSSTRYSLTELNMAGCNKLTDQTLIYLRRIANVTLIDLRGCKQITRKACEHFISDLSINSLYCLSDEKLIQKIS
The experiment can be described thus: KDM demethylase inhibition (IC50). It counts as biochemical.

On to `CN(c1ccccc1)c1ccc2c(c1)CCC[C@H]2CNc1cnccc1C(=O)O` [Compound I, 3-({[(1R)-6-[methyl(phenyl)amino]-1,2,3,4-tetrahydronaphthalen-1-yl]methyl}amino)pyridine-4-carboxylic Acid], for which the concentration for half-maximal inhibition (IC50) is above 10 µM.
